Laboratory results reported in patent EP2769723A1, “Compounds for use in inhibiting HIV capsid assembly” (priority 2013, dated 2014).
Where two headings read alike, the source gives them in different places.

What was measured:
in vitro = assay type: cell-based; details: human
Method: (§1) Cytotoxicity of selected hits tested in the assay with NL4.3 infected cells was determined by MTT test. TZM cells were seeded on the previous day on 96-well plate in the density 5 x 10^3 cells per well. The tested compounds were added in different concentrations, but the DMSO concentration never exceeded 1 % DMSO. As controls were used cells treated only with 1 % DMSO (non-toxic concentration) and cells treated with 5 % DMSO (toxic concentration). 20 µl of the CellTiter 96 Aqueous One substrate (Promega) was added to the 100 µl of culture media 48 hrs after the compounds addition and the color development was quantified 4 hrs later by measuring the absorbance at 490 nm on Saphire reader. Compounds were consider non-cytotoxic (at given concentrations) when the measured values were higher than 80 % of the value of 1 % DMSO treated cells.

TZM cells = test: in vitro; assay type: cell-based; details: Table 4; non-cytotoxic when values higher than 80 % of 1 % DMSO treated cells
Method: as §1

wild type NL4.3 HIV-1 = test: Tissue culture infectivity test, TZM titration of supernatants from infected TZM cells; assay type: cell-based; details: Human immunodeficiency virus 1, TZM
Method: Hits selected in the YFP-screen were further evaluated in the tissue culture experiments with cells infected with the wild type NL4.3 HIV-1. The virus for infection was obtained from co-culture of MT4 cells. The MT4 cells co-culture was synchronized for one week and then used for the infection of fresh MT 4 cells. 48 hrs post-infection was the culture supernatant harvested, cleared by the filtration through […] filter and stored in -80 °C in 1 ml aliquots. Amount of virus was quantified by enzyme-linked immuno sorbent assay (ELISA) with antibodies against HIV-1 CA (3 ng of CA/ml) and blue cell assay (1x10^5 IU/ml), which gives 3 x 10^4 IU/ng of CA.
For compounds testing the TZM cells were seeded on 96-well plate in the density 5 x 10^3 cells per well. The culture media was aspirated approx. 16 hrs later and cells were infected by the wild type NLA.3 HIV-1 by addition of 50J..il of prepared virus stock diluted with 50 µl of complete DMEM. The compounds were added twice to ensure that there are not any preassembled viruses present at the time of their addition. Compounds were first added 8 hrs post-infection and then 24 hrs later. In both cases the old culture media were replaced by 100 µl of fresh complete DMEM prior to the compounds addition. Different compounds concentrations were tested, but the DMSO concentration never exceeded 1 % DMSO. As controls were used cells treated only with 1 % DMSO and cells treated with 0,1 µM Lopinavir (HIV-1 protease inhibitor). Supernatant was harvested 24 hrs after the second compound addition, i.e. 56 hrs post-infection. Harvested supernatants were immediately titrated on the fresh TZM cells in aim to perform the infectivity assay (TZM titration), or inactivated by addition of Triton X-100 to the final concentration 0.025 % for further ELISA analysis.
TZM titration was performed on the cells seeded day before on 96-well plate in the density 5 x 10^3 cells per well. The analysis was performed for each compound concentration at three different dilutions and in duplicates. The culture media was aspired and cells were lysed 48 hrs post-infection by addition of 100 µl of SteadyGlo luciferase substrate (Promega) diluted 1 : 1 by complete DMEM. The luminescence signal was measured on Luminoskan Ascent (Thermo Labsystems) after the transfer of 80 µl of lysate to the flat bottom white polystyrene assay plates (Costar).

CA = biological target: T1, CA (Human immunodeficiency virus type 1 group M subtype B, UniProt P12493); test: ALPHA screen (AlphaScreen): inhibition of CAI binding to CA; parameters: species or system HIV-1
T1 construct: a fusion protein of CA with glutathione-S-transferase (CA-GST)
Method: The AlphaScreen experiments are performed using Perkin Elmer Enspire plate reader in white 96-well ProxiPlates and PBS supplemented with 0.05% Tween20, 2mM DTT, 2% DMSO. First, Streptavidin-coated Donor beads are used to capture the CAI-biotin peptide. In the other solution, a fusion protein of CA with glutathione-S-transferase (CA-GST) is mixed with GSH Acceptor beads. Both mixtures were incubated and then mixed together. To test the ability of prepared organic compounds to inhibit the CAI binding to CA, they are screened at concentrations between 0.5-100 µM and IC50 values are calculated from the influenced signals.
Upon illumination by laser at 680 nm, Donor beads containing the photosensitizer phthalocyanine convert ambient oxygen to an excited form of singlet oxygen ^1O2. Singlet oxygen can within its half-life of ~ 4 µs diffuse approximately 200 nm in solution. If an Acceptor bead is within that proximity, which is mostly upon CA:CAI interaction, energy is transferred from the singlet oxygen to thioxene derivates within the Acceptor and signal at 520 - 620 nm is emitted.

HIV capsid protein = HIV capsid protein (Human immunodeficiency virus type 1 group M subtype B, UniProt P12493); test: Isothermal titration calorimetry (ITC), whole capsid protein; assay type: binding; details: dissociation constant
Method: (§2) The binding of CA ligand AMR-346 to the HIV capsid protein and its C-terminal part was monitared using a VP-ITC microcalorimeter (MicroCal Inc., Northampton, USA) at 25 °C. The solutions of reactants were prepared in 30 mM MES, pH 6.0 containing 10 % glycerol, 2 mM 2-mercaptoethanol, 2 % DMSO, and the exact concentrations of proteins were determined by amino acid analysis. […] The isothermal titration was used to estimate the ligand concentration and the binding parameters were calculated for situation when single AMR-346 molecule binds to monomer or dimer of protein, respectively. Typically, 9 µl aliquots of AMR-346 were injected stepwise into the sample cell containing 1.43 ml of 7 µM protein until saturation was achieved. The experiment was accompanied by a corresponding control experiment in which AMR-346 was injected into buffer alone. The association constants were determined by software developed by MicroCal.
The CA ligand AMR-346 binds to monomer of HIV capsid protein or its C-terminal part with dissociation constants of 230 nM or 50 nM, respectively. For the binding mode of single molecule AMR-346 toward dimeric capsid protein and its C-terminal part, the dissociation constants were estimated to be 120 nM and 26 nM, respectively. Table 4: Synthesized and tested compounds

[1] = biological target: HIV capsid protein C-terminal part (Human immunodeficiency virus type 1 group M subtype B, UniProt P12493); test: Isothermal titration calorimetry (ITC), C-terminal part; assay type: binding; details: dissociation constant
Method: Upper graph: raw experimental data. Lower graph: Fit (line) to the integrated heats (full circles) from each injection, corrected for the heat of dilution of CA ligand AMR-346.
as §2
The CA ligand AMR-346 binds to monomer of HIV capsid protein or its C-terminal part with dissociation constants of 230 nM or 50 nM, respectively. […]

[2] = Solubility observations (DMSO, ITC buffer); assay type: physicochemical
[3] = Table 5, MTT cytotoxicity test, read-out: CC50
[4] = read-out: tissue culture IC50 (µM)
[5] = Table 4, non-cytotoxic when values higher than 80 % of 1 % DMSO treated cells, read-out: toxicity LC50
[6] = CAI-biotin peptide / CA-GST, compounds screened at 0.5-100 µM, read-out: α screen IC50

Row | solubility in DMSO [2] | Structure (SMILES) | CC50 at 48 h (in vitro; [3]) [µM] | toxicity LC50 (µM) (TZM cells) | IC50 (wild type NL4.3 HIV-1) [µM] | IC50 (wild type NL4.3 HIV-1; [4]) [µM] | other results
1 | – | FC(F)(F)c1cccc(Nc2nc(-c3cccnc3)nc3cc(C(F)(F)F)ccc23)c1 [OSR-201] | 25 | non-toxic | 8.5 | ~8 | –
2 | – | CNc1ccc([N+](=O)[O-])cc1Nc1nc(-c2cccnc2)nc2ccccc12 [AMR.494] | 16.1 | – | 1.8 | – | CC50 at 48 h (in vitro; [5]): ~15 µM; IC50 (CA; [6]): 0.9 µM
3 | – | c1cncc(-c2nc(Nc3ccc4[nH]nnc4c3)c3ccccc3n2)c1 [AMR.325] | – | – | 6.9 | – | CC50 at 48 h (in vitro; tzm cells, Table 5, MTT cytotoxicity test, read-out: CC50): 200 µM; IC50 (CA; [6]): > 200 µM
4 | – | CCOC(=O)c1ccc(Nc2nc(-c3ccncc3)nc3ccccc23)cc1 [AMR.346] | – | non-toxic | – | ~15 | Kd (HIV capsid protein; one ligand binds to monomer of HIV capsid protein, 25 °C, pH 6.0): 0.23 µM; Kd (HIV capsid protein; single molecule binds to dimeric capsid protein, estimated): 0.12 µM; Kd ([1]; one ligand binds to monomer of C-terminal part, 25 °C, pH 6.0): 0.05 µM; Kd ([1]; single molecule binds to dimeric C-terminal part, estimated): 0.026 µM; IC50 (CA): 7.2 µM; solubility ([2]; 30 mM MES, pH 6.0, 10 % glycerol, 2 % DMSO, concentration required for ITC): low solubility
5 | insoluble in DMSO | c1cncc(-c2nc(SCCSc3nc(-c4cccnc4)nc4ccccc34)c3ccccc3n2)c1 [OSR-291] | – | – | – | – | –
6 | insoluble in DMSO | Clc1cc(Nc2nc(-c3cccnc3)nc3ccccc23)cc(Cl)c1Cl [KP-253] | – | – | – | – | –
7 | – | NC(=O)c1c(F)cccc1Nc1nc(-c2ccccn2)nc2ccccc12 [OSR-85] | 125 | non toxic | 6.5 | ~8 | –
8 | – | OCc1ccc(Nc2nc(-c3cccnc3)nc3ccccc23)cc1 [KP-236] | – | – | – | ~10 | CC50 at 48 h (in vitro; [5]): ~10 µM
9 | – | Fc1cc(Nc2nc(-c3cccnc3)nc3ccccc23)cc(F)c1F [OSR-199] | 100 | non-toxic | 5.1 | ~5 | –

Row | Structure (SMILES) | solubility in DMSO [2] | CC50 at 48 h (in vitro; [3]) [µM] | toxicity LC50 (µM) (TZM cells) | IC50 (wild type NL4.3 HIV-1) [µM] | IC50 (wild type NL4.3 HIV-1; [4]) [µM] | other results
10 | Cl.O=C(O)c1cc(O)ccc1Nc1nc(-c2cccnc2)nc2ccccc12 [5-hydroxy-2-(2-(pyridin-3-yl)quinazolin-4-ylamino)benzoic acid hydrochloride] | insolubility in DMSO | – | – | – | – | –
